In ChEMBL document CHEMBL4507268 (2021):

Assays:
[1] = species on record: Rattus norvegicus; settings: Compound concentration 10.0 uM
[2] = molecular target: Tyrosine-protein kinase BTK (Homo sapiens) (UniProt Q06187); settings: Compound concentration 1.0 uM
[3] = molecular target: Mast/stem cell growth factor receptor Kit (Homo sapiens) (UniProt P10721); settings: Compound concentration 1.0 uM
[4] = molecular target: T1, cGMP-dependent protein kinase 2 (Homo sapiens) (UniProt Q13237); settings: Compound concentration 1.0 uM
T1 sequence (whole entry): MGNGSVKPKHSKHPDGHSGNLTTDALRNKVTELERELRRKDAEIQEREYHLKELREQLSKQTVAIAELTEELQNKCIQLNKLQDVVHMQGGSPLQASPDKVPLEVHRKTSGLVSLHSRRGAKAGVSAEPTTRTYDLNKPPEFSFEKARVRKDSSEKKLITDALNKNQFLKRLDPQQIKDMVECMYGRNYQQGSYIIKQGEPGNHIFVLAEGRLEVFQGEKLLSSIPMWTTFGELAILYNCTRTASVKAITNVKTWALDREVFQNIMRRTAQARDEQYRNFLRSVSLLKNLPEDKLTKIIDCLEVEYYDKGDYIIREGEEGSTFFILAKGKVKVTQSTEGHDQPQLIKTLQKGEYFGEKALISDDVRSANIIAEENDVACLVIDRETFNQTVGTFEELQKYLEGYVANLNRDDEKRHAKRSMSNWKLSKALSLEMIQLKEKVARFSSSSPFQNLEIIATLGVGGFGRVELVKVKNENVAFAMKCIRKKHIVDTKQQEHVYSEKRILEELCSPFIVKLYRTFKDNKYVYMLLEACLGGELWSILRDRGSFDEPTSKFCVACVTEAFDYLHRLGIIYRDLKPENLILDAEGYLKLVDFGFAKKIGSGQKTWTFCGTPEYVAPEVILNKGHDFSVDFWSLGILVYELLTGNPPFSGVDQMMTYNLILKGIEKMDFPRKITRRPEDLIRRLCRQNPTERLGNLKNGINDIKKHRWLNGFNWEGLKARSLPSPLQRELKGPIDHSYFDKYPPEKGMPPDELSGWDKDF

[5] = molecular target: T2, Tyrosine-protein kinase receptor TYRO3 (Homo sapiens) (UniProt Q06418); settings: Compound concentration 1.0 uM
T2 sequence (whole entry): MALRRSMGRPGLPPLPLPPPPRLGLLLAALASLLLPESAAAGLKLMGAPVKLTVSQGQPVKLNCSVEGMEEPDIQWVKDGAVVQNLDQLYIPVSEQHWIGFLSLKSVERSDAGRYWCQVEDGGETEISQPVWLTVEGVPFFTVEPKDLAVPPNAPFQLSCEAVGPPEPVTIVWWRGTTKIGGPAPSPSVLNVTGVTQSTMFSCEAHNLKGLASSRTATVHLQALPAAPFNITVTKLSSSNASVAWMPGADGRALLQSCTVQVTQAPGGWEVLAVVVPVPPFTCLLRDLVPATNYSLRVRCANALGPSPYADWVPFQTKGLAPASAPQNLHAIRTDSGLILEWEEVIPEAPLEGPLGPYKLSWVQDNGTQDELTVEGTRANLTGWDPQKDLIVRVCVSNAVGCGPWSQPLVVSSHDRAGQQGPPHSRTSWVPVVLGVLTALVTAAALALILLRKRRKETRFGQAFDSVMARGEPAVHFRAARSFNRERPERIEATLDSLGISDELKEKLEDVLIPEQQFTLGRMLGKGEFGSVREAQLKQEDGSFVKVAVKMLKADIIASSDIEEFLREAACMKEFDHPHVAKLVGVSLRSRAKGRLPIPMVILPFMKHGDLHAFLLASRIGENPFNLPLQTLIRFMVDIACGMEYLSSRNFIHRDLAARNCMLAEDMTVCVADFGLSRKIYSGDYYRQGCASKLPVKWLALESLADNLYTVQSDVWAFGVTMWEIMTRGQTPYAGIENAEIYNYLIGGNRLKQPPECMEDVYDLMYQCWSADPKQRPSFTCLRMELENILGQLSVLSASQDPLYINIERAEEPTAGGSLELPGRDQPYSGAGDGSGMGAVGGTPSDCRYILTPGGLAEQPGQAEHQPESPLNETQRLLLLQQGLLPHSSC

[6] = molecular target: Serine/threonine-protein kinase 24 (Homo sapiens) (UniProt Q9Y6E0); settings: Compound concentration 1.0 uM
[7] = molecular target: T3, Tyrosine-protein kinase TXK (Homo sapiens) (UniProt P42681); settings: Compound concentration 1.0 uM
T3 sequence (whole entry): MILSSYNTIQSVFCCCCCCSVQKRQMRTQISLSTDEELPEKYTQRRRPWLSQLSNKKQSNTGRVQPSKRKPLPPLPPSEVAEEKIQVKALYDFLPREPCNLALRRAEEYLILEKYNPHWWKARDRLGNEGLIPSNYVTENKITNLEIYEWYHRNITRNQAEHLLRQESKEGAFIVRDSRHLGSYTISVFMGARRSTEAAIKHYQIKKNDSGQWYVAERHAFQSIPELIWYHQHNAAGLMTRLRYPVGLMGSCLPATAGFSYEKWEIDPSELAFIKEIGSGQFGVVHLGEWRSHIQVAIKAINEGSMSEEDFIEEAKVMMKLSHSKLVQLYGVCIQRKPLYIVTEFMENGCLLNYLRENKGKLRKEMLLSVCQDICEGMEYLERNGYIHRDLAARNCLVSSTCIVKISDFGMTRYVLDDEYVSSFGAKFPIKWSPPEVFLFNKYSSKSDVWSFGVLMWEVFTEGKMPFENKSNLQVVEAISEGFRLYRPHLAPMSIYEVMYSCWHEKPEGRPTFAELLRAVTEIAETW

[8] = molecular target: Myosin light chain kinase 2, skeletal/cardiac muscle (Homo sapiens) (UniProt Q9H1R3); settings: Compound concentration 1.0 uM
[9] = molecular target: Tyrosine-protein kinase Fyn (Homo sapiens) (UniProt P06241); settings: Compound concentration 1.0 uM
[10] = molecular target: Serine/threonine-protein kinase PAK 4 (Homo sapiens) (UniProt O96013); settings: Compound concentration 1.0 uM
Chain of Serine/threonine-protein kinase PAK 4 (Homo sapiens) (O96013 whole entry, looked up): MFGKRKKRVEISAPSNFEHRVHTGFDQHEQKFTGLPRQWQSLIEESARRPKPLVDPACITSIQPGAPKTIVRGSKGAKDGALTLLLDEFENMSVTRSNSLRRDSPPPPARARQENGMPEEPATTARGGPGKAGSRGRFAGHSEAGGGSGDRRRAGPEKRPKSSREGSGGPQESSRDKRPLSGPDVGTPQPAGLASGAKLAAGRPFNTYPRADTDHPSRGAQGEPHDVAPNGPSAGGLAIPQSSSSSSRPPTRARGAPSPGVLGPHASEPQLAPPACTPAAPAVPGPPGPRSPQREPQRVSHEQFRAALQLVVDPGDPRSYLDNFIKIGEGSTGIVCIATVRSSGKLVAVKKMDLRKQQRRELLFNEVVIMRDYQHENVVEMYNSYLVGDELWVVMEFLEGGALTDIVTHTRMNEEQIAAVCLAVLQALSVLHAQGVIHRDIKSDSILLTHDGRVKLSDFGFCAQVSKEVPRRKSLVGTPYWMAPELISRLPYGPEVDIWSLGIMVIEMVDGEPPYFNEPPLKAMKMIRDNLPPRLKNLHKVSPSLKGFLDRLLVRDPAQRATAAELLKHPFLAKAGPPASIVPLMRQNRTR

Chain of Serine/threonine-protein kinase 24 (Homo sapiens) (Q9Y6E0 whole entry, looked up): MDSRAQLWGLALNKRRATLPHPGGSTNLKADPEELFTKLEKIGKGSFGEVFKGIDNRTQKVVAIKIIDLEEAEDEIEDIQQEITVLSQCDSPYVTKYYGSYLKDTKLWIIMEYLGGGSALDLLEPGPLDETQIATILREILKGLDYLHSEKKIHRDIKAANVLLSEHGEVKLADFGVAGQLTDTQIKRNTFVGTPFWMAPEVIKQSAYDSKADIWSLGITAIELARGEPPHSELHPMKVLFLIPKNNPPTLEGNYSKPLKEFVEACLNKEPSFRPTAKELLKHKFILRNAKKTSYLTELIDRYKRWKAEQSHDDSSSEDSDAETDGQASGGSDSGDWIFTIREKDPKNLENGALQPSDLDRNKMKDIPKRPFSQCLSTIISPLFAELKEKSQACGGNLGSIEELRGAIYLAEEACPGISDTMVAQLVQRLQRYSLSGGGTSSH
Chain of Myosin light chain kinase 2, skeletal/cardiac muscle (Homo sapiens) (Q9H1R3 whole entry): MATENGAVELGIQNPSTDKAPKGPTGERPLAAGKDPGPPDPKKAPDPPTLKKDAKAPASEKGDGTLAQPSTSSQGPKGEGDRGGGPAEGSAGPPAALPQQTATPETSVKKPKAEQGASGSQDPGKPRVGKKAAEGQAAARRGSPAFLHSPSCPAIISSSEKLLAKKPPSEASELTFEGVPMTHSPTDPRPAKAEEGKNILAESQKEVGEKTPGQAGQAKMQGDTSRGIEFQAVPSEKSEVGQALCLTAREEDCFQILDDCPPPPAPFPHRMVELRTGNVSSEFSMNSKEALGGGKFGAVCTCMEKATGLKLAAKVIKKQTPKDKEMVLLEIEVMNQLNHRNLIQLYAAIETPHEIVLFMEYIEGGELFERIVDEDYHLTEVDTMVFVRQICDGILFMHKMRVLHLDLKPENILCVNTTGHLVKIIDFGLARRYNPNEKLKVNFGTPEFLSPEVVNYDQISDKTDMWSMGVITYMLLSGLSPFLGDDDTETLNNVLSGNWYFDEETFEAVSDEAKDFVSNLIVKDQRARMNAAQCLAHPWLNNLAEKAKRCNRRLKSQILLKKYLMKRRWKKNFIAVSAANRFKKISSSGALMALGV
Chain of Mast/stem cell growth factor receptor Kit (Homo sapiens) (P10721 whole entry): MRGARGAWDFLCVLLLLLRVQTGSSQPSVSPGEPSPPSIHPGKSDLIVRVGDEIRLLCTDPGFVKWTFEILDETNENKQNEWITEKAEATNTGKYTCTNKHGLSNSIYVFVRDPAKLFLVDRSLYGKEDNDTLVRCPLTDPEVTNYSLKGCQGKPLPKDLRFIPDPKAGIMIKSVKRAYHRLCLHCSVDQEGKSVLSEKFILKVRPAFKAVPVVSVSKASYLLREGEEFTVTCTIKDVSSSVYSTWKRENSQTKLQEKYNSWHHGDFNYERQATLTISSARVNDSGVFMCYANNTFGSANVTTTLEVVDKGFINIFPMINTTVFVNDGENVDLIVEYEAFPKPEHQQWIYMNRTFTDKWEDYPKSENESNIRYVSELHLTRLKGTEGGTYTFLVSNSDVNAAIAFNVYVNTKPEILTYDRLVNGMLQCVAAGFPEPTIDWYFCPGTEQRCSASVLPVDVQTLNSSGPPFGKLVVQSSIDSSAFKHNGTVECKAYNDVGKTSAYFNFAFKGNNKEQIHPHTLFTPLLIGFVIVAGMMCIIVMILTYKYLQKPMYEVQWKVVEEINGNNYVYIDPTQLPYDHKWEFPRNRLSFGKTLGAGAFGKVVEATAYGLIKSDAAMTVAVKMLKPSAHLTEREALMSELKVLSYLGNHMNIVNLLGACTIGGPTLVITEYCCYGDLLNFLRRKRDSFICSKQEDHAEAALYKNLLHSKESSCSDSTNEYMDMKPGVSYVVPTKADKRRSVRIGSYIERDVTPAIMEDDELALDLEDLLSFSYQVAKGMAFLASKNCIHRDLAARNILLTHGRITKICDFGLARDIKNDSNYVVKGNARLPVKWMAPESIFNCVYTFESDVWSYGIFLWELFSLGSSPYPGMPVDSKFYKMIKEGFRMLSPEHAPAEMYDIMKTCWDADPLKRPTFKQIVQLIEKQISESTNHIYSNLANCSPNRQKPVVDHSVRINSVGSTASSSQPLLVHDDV
Chain of Tyrosine-protein kinase Fyn (Homo sapiens) (P06241 2-537 limits assumed): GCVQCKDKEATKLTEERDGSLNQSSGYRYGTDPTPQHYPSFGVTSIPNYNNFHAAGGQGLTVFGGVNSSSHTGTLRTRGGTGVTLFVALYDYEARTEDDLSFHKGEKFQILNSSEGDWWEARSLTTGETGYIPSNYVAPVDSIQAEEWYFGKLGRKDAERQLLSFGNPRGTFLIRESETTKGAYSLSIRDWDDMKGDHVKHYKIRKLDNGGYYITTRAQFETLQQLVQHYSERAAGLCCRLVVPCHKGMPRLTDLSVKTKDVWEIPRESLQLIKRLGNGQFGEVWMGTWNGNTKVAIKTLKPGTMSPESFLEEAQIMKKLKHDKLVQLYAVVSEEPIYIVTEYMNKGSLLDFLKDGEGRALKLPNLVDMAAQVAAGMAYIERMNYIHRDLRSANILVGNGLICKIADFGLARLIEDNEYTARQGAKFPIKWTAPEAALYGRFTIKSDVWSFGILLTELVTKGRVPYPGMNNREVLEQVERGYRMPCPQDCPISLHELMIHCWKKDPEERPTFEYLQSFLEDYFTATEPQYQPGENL
Chain of Tyrosine-protein kinase BTK (Homo sapiens) (Q06187 whole entry): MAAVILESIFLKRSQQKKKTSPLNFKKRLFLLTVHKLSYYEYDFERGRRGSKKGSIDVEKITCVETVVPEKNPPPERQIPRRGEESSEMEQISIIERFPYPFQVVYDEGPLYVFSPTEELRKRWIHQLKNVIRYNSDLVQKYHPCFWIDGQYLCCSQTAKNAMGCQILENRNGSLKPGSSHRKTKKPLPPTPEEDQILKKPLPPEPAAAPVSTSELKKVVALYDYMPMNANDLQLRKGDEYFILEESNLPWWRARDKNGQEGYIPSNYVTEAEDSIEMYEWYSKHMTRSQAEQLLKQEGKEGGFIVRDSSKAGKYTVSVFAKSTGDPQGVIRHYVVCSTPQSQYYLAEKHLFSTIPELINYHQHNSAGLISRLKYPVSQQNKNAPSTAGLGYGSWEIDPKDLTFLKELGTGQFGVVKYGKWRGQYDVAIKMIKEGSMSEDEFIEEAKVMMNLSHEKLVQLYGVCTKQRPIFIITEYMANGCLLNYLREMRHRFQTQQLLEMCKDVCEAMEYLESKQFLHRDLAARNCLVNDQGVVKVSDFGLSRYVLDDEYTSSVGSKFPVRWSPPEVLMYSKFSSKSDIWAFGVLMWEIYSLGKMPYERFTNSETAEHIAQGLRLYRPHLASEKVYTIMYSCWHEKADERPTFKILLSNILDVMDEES

Cc1nc(C2CCN(C(=O)c3ccc(OC(F)(F)F)cc3N)CC2)c2ncc(N3CCN(C)CC3)cc2n1 [BAY-693]
inactive: inhibition [1] -4.32%

CN1CCN(c2cnc3c(C4CCN(C(=O)c5ccc(OC(F)(F)F)cc5N)CC4)ncnc3c2)CC1 [BAY-885]
inactive: % residual kinase activity [2] 98% | % residual kinase activity [3] 104% | % residual kinase activity [4] 127% | % residual kinase activity [5] 100% | % residual kinase activity [6] 99% | % residual kinase activity [7] 99% | % residual kinase activity [8] 93% | % residual kinase activity [9] 129% | % residual kinase activity [10] 101%
